The source of these data is US8476253B2, “Amide derivative” (Daiichi Sankyo Company, Limited, priority 2009, dated 2013).

One test deals with T1, substance P receptor (Cavia porcellus, UniProt P30547).
T1 construct: A preparation of a crude lung membrane sample was prepared; from tissue; host or cells: guinea-pig lung (crude membrane sample)
Nature of the test: Test for binding to guinea-pig substance P receptor (crude lung membrane sample). To be noted: crude guinea-pig lung membrane sample, [3H]substance P; Ki from IC50 and Kd; read-out: Ki. On the procedure:
A preparation of a crude lung membrane sample was prepared, and a test for binding of a test substance to the sample was performed according to the method described in EP0336230A2.
The binding effect of the test substance to a substance P receptor was calculated as an affinity (Ki) of the test substance for the substance P receptor from a 50% binding concentration (IC50) and an affinity (Kd) of [^3H]substance P for the substance P receptor.

The target of the next test is T2, human NK2 receptor (Homo sapiens, UniProt P21452).
T2 construct: expressed in transfected cells; host or cells: COS cells
T2 sequence (P21452 1-398): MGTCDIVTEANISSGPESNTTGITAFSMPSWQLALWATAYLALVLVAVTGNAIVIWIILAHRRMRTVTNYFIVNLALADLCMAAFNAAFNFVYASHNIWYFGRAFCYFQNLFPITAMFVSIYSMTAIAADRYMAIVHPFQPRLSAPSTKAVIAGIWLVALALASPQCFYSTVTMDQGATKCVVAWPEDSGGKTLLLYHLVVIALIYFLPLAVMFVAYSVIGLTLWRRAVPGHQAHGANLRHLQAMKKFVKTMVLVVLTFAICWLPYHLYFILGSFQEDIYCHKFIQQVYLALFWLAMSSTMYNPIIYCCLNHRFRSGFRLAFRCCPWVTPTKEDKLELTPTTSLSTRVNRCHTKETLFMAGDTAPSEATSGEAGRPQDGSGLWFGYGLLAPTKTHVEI
Briefly: Test for binding to human NK2 receptor. On the procedure:
A solution of cryopreserved COS cells expressing human NK2 receptor was diluted with a buffer (50 mM tris-hydrochloride containing 0.04% of bovine serum albumin [BSA], pH 7.4) to obtain a concentration of 5.0×10^5 cells/mL and used as a crude membrane sample.
[^3H]SR 48968 (GE Healthcare Japan Corporation) was diluted with a mixture of 50 mM of tris-hydrochloride (pH 7.4), 6 mM of manganese chloride tetrahydrate, 800 μg/mL of BSA, 8 μg/mL of chymostatin, 8 μg/mL of leupeptin, 80 μg/mL of bacitracin, and 20 μg/mL of phosphoramidon. […] After the reaction, the membrane components were collected on a GF/B glass fiber filter paper (Whatman; Biomedical Research and Development Laboratories, Inc.) with an automated filtration system (Brandel; Biomedical Research and Development Laboratories, Inc.). The glass fiber filter paper was pretreated with a 0.1% polyethylenimine solution for 4 hours or longer to minimize non-specific binding. The filter collecting the membrane components was transferred to a small-size plastic vial containing 3 mL of Pico-Fluor, and the radioactivity was measured with a liquid scintillation counter (Tri-Carb 2900TR or 2300TR; Perkin Elmer).
The effect of binding to the NK2 receptor was calculated as the affinity (Ki) of the test substance for the NK2 receptor from a 50% binding dose (IC50) and the affinity (Kd) of [^3H]SR 48968 for the NK2 receptor.

A further test has as its target T3, human M3 receptor (Homo sapiens, UniProt P20309).
T3 construct: expressed in transfected cells; host or cells: CHO cells
Briefly: Test for binding to human M3 receptor. The procedure: A solution of cryopreserved CHO cells expressing human M3 receptor was diluted with a buffer (50 mM tris-hydrochloride containing 0.5 mM of EDTA, pH 7.4) to obtain 5.0×10^5 of cells/mL and used as a crude membrane sample.
[N-methyl-^3H]-(−)-Scopolamine methyl chloride (GE Healthcare Japan Corporation) was diluted with 50 mM of tris-hydrochloride containing 0.5 mM of EDTA (pH 7.4), a test substance and 250 μL of the crude membrane sample solution were added to 250 μL of the mixture, and the mixture was incubated at room temperature for 60 minutes. […] The glass fiber filter paper was pretreated with a 0.1% polyethylenimine solution for 4 hours or longer to minimize non-specific binding. The filter collecting membrane components was transferred to a small-size plastic vial containing 3 mL of Pico-Fluor, and the radioactivity was measured with a liquid scintillation counter (Tri-Carb 2900TR or 2300TR; Perkin Elmer).
The effect of binding to the M3 receptor was calculated as the affinity (Ki) of the test substance for the M3 receptor from a 50% binding dose (IC50) and the affinity (Kd) of [N-methyl-^3H]-(−)-Scopolamine methyl chloride for the M3 receptor.

Where [1] appears, read: COS cells expressing human NK2 receptor, [3H]SR 48968 1 nM, Ki from IC50 and Kd, read-out: Ki.
[2] abbreviates: CHO cells expressing human M3 receptor, [N-methyl-3H]-(-)-Scopolamine methyl chloride 0.5 nM, Ki from IC50 and Kd, read-out: Ki.

Molecules are shown by their SMILES. pKi: −log10 of the molar value. Structures can show the parent of a compound that is named as a salt. Where two headings read alike, the source gives them in different places.

T1 sequence (P30547 whole entry): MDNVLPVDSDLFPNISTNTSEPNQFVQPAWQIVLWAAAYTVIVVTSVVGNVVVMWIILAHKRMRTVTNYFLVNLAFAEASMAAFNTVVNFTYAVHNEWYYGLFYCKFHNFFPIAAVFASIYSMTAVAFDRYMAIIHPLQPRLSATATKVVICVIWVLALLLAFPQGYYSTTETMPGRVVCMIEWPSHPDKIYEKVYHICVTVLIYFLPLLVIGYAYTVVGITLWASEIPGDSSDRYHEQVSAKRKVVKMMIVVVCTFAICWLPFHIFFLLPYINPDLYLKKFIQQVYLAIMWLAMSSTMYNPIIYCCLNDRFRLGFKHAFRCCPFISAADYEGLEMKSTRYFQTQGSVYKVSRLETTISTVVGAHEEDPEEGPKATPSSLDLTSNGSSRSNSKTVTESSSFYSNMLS
T3 sequence (P20309 whole entry): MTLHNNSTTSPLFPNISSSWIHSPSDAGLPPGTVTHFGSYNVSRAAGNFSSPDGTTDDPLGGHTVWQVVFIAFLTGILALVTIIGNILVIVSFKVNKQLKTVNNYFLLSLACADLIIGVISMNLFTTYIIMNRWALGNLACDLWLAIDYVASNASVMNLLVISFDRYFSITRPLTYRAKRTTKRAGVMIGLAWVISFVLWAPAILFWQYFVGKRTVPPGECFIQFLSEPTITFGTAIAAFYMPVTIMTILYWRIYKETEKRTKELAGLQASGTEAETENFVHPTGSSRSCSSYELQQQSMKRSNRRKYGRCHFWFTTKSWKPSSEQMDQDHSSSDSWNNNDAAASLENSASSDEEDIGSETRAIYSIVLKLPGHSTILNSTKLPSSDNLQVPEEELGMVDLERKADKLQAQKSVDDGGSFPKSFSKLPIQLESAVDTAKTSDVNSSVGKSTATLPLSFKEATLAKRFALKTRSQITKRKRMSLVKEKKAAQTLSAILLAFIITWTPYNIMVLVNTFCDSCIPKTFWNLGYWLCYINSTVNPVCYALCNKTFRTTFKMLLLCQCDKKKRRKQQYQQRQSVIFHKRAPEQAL

Regarding `Cc1cc(NCCCCCC(=O)N(C)CCN2CCC(OC(=O)Nc3ccccc3-c3ccccc3)CC2)sc1C(=O)N(C)CCN(C)C(=O)CO[C@H]1Cc2ccccc2C12CCN(CC[C@@]1(c3ccc(F)cc3)CN(C(=O)c3cc(C(F)(F)F)cc(C(F)(F)F)c3)CO1)CC2` [Example 89, 1-(2-{[6-({5-[{2-[({[(2S)-1′-{2-[(5R)-3-[3,5-Bis(trifluoromethyl)benzoyl]-5-(4-fluorophenyl)-1,3-oxazolidin-5-yl]ethyl}-2,3-dihydrospiro[indene-1,4′-piperidin]-2-yl]oxy}acetyl)(methyl)amino]ethyl}(methyl)carbamoyl]-4-methyl-2-thienyl}amino)hexanoyl](methyl)amino}ethyl)piperidin-4-yl biphenyl-2-ylcarbamate], the results for the pKi on substance P receptor, on human NK2 receptor (setting [1]) and at human M3 receptor (setting [2]) were 9.13, 9.12 and 8.92, respectively.

`CN(CCN1CCC(OC(=O)Nc2ccccc2-c2ccccc2)CC1)C(=O)CCCCCNCc1ccc(C(=O)N(C)CCCN(C)C(=O)CO[C@H]2Cc3ccccc3C23CCN(CC[C@@]2(c4ccc(F)cc4)CN(C(=O)c4cc(C(F)(F)F)cc(C(F)(F)F)c4)CO2)CC3)cc1` [Example 75, 1-(2-{[6-({4-[{3-[({[(2S)-1-{2-[(5R)-3-[3,5-Bis(trifluoromethyl)benzoyl]-5-(4-fluorophenyl)-1,3-oxazolidin-5-yl]ethyl}-2,3-dihydrospiro[indene-1,4′-piperidin]-2-yl]oxy}acetyl)(methyl)amino]propyl}(methyl)carbamoyl]benzyl}amino)hexanoyl](methyl)amino}ethyl)piperidin-4-yl biphenyl-2-ylcarbamate]: the pKi (usually −log10 of the Ki, conventionally taken in molar units) is 9.00 on substance P receptor, 9.60 at human NK2 receptor (setting [1]) and 9.28 on human M3 receptor (setting [2]).

For the compound `CN(CCCCCC(=O)N(C)CCN1CCC(OC(=O)Nc2ccccc2-c2ccccc2)CC1)Cc1ccc(C(=O)N(C)CCCN(C)C(=O)CO[C@H]2Cc3ccccc3C23CCN(CC[C@@]2(c4ccc(F)cc4)CN(C(=O)c4cc(C(F)(F)F)cc(C(F)(F)F)c4)CO2)CC3)nc1` [Example 5, 1-{2-[{6-[({6-[{3-[({[(2S)-1′-{2-[(5R)-3-[3,5-Bis(trifluoromethyl)benzoyl]-5-(4-fluorophenyl)-1,3-oxazolidin-5-yl]ethyl}-2,3-dihydrospiro[indene-1,4′-piperidin]-2-yl]oxy}acetyl)(methyl)amino]propyl}(methyl)carbamoyl]pyridin-3-yl}methyl)(methyl)amino]hexanoyl}(methyl)amino]ethyl}piperidin-4-yl biphenyl-2-ylcarbamate], the values for the pKi on substance P receptor, at human NK2 receptor (setting [1]) and at human M3 receptor (setting [2]) were 8.82, 9.32 and 9.16, respectively.

As to `CN(CCN1CCC(OC(=O)Nc2ccccc2-c2ccccc2)CC1)C(=O)CCCCCN(C)c1ccc(C(=O)N(C)CCCN(C)C(=O)CO[C@H]2Cc3ccccc3C23CCN(CC[C@@]2(c4ccc(F)cc4)CN(C(=O)c4cc(C(F)(F)F)cc(C(F)(F)F)c4)CO2)CC3)s1` [Example 8, 1-{2-[{6-[{5-[{3-[({[(2S)-1′-{2-[(5R)-3-[3,5-Bis(trifluoromethyl)benzoyl]-5-(4-fluorophenyl)-1,3-oxazolidin-5-yl]ethyl}-2,3-dihydrospiro[indene-1,4′-piperidin]-2-yl]oxy}acetyl)(methyl)amino]propyl}(methyl)carbamoyl]-2-thienyl}(methyl)amino]hexanoyl}(methyl)amino]ethyl}piperidin-4-yl biphenyl-2-ylcarbamate], the values for the pKi at substance P receptor, at human NK2 receptor (setting [1]) and at human M3 receptor (setting [2]) were 8.59, 9.42 and 8.72, respectively.

On to `Cc1nc(NCCCCCC(=O)N(C)CCN2CCC(OC(=O)Nc3ccccc3-c3ccccc3)CC2)sc1C(=O)N(C)CCN(C)C(=O)CO[C@H]1Cc2ccccc2C12CCN(CC[C@@]1(c3ccc(F)cc3)CN(C(=O)c3cc(C(F)(F)F)cc(C(F)(F)F)c3)CO1)CC2` [Example 107, 1-(2-{[6-({5-[{2-[({[(2S)-1′-{2-[(5R)-3-[3,5-Bis(trifluoromethyl)benzoyl]-5-(4-fluorophenyl)-1,3-oxazolidin-5-yl]ethyl}-2,3-dihydrospiro[indene-1,4′-piperidin]-2-yl]oxy}acetyl)(methyl)amino]ethyl}(methyl)carbamoyl]-4-methyl-1,3-thiazol-2-yl}amino)hexanoyl](methyl)amino}ethyl)piperidin-4-yl biphenyl-2-ylcarbamate trihydrochloride], for which the negative-log Ki (pKi) is 8.92 at substance P receptor, 9.23 on human NK2 receptor and 8.85 on human M3 receptor.

As to `Cc1nc(N(C)CCCCCC(=O)N(C)CCN2CCC(OC(=O)Nc3ccccc3-c3ccccc3)CC2)sc1C(=O)N(C)CCN(C)C(=O)CO[C@H]1Cc2ccccc2C12CCN(CC[C@@]1(c3ccc(F)cc3)CN(C(=O)c3cc(C(F)(F)F)cc(C(F)(F)F)c3)CO1)CC2` [Example 108, 1-{2-[{6-[{5-[{2-[({[(2S)-1′-{2-[(5R)-3-[3,5-Bis(trifluoromethyl)benzoyl]-5-(4-fluorophenyl)-1,3-oxazolidin-5-yl]ethyl}-2,3-dihydrospiro[indene-1,4′-piperidin]-2-yl]oxy}acetyl)(methyl)amino]ethyl}(methyl)carbamoyl]-4-methyl-1,3-thiazol-2-yl}(methyl)amino]hexanoyl}(methyl)amino]ethyl}piperidin-4-yl biphenyl-2-ylcarbamate trihydrochloride], the values for the pKi at substance P receptor, on human NK2 receptor and at human M3 receptor were 8.89, 9.10 and 8.52, respectively.

For the compound `Cc1nc(N(C)CCCCCC(=O)N(C)CCN2CCC(OC(=O)Nc3ccccc3-c3ccccc3)CC2)sc1C(=O)N(C)CCCN(C)C(=O)CO[C@H]1Cc2ccccc2C12CCN(CC[C@@]1(c3ccc(F)cc3)CN(C(=O)c3cc(C(F)(F)F)cc(C(F)(F)F)c3)CO1)CC2` [Example 106, 1-{2-[{6-[{5-[{3-[({[(2S)-1′-{2-[(5R)-3-[3,5-Bis(trifluoromethyl)benzoyl]-5-(4-fluorophenyl)-1,3-oxazolidin-5-yl]ethyl}-2,3-dihydrospiro[indene-1,4′-piperidin]-2-yl]oxy}acetyl)(methyl)amino]propyl}(methyl)carbamoyl]-4-methyl-1,3-thiazol-2-yl}(methyl)amino]hexanoyl}(methyl)amino]ethyl}piperidin-4-yl biphenyl-2-ylcarbamate trihydrochloride], the figures for the pKi on substance P receptor, at human NK2 receptor and at human M3 receptor were 8.51, 9.47 and 8.89, respectively.

For the compound `CN(CCN1CCC(OC(=O)Nc2ccccc2-c2ccccc2)CC1)C(=O)CCCCCNCc1ccc(C(=O)N(C)CCCN(C)C(=O)CO[C@H]2Cc3ccccc3C23CCN(CC[C@@]2(c4ccc(F)cc4)CN(C(=O)c4cc(C(F)(F)F)cc(C(F)(F)F)c4)CO2)CC3)nc1` [Example 7, 1-{2-[{6-[({6-[{3-[({[(2S)-1′-{2-[(5R)-3-[3,5-Bis(trifluoromethyl)benzoyl]-5-(4-fluorophenyl)-1,3-oxazolidin-5-yl]ethyl}-2,3-dihydrospiro[indene-1,4′-piperidin]-2-yl]oxy}acetyl)(methy)amino]propyl}(methyl)carbamoyl]pyridin-3-yl}methyl)amino]hexanoyl}(methyl)amino]ethyl}piperidin-4-yl biphenyl-2-ylcarbamate], the negative-log Ki (pKi) on substance P receptor is 9.24; on human NK2 receptor (setting [1]) it was 9.77; on human M3 receptor (setting [2]), 9.05.
